Patent publication EP1044000B1, “COMBINATION THERAPY FOR THE TREATMENT OF AIDS” (MERCK & CO., INC., priority 1997, dated 1999)
Like-named read-outs stand apart in the source and are kept apart here.

Assay: Pharmacokinetic study of Compound A alone and in combination with Indinavir in healthy human males (Example 11)
Assay type: in vivo
Conditions: for Cmax / Tmax / AUC / concentration at 8 h / concentration at 12 h / concentration at 24 h: male, human, plasma, po, fasted; for Cmax / Tmax: arithmetic mean; for AUC: arithmetic mean (CV %); for concentration at 8 h: plasma 8 hours after dosing, read-out: C8 hrs; for concentration at 12 h: plasma 12 hours after dosing, read-out: C12 rs; for concentration at 24 h: plasma 24 hours after dosing, read-out: C24 hrs
Procedure: A double-blind, single-rising dose, alternating two-panel, four-period, placebo-controlled study was conducted for Compound A alone and in combination with Indinavir in healthy adult males in the fasted state. […] All of the doses of Compound A were administered as the sulfate salt form of Compound A. All of the Compound A doses were oral suspensions of the sulfate salt form in sterile water, except that the 600-mg doses administered to Panel B in the fourth period were tablets. Indinavir was administered in the form of CRIXIVAN® capsules. The safety of the subjects was monitored prior and subsequent to dosing by clinical adverse event reporting, measurement of vital signs, physical examinations, blood and urine laboratory safety tests, and ECGs. Plasma concentrations of Compound A were determined predose and at 0.5, 1, 1.5, 2, 3, 4, 6, 8, 12, 16, 20, 24, 30, 36 and 48 hours following each single dose in each period, using a reverse-phase HPLC column switching method with fluorescence detection.

[1] = 200 mg of Compound A with 800 mg of Indinavir relative to 200 mg of Compound A alone (Table 3 vs Table 2)
[2] = 200 mg Compound A + 800 mg IDV (Indinavir) co-administered, single oral dose, n=6
[3] = 200 mg Compound A + 1200 mg IDV (Indinavir) co-administered, single oral dose, n=6
[4] = 400 mg Compound A + 800 mg IDV (Indinavir) co-administered, single oral dose, n=6
[5] = 600 mg Compound A + 800 mg IDV (Indinavir) co-administered, single oral dose, n=8
[6] = 600 mg, 600 mg (tablets) single oral dose, sulfate salt, n=8
[7] = 600 mg, 600 mg single oral dose, suspension of sulfate salt, n=8
[8] = 1600 mg, 1600 mg single oral dose, suspension of sulfate salt, n=6
[9] = 2000 mg, 2000 mg single oral dose, suspension of sulfate salt, n=8

AUC of Compound A higher for co-administration with Indinavir relative to Compound A alone [1]: about 30 x
C8 hrs higher for co-administration with Indinavir relative to Compound A alone [1]: ~46 x
Cmax higher for co-administration with Indinavir relative to Compound A alone [1]: about 19 x
AUC higher than for administration of Compound A alone (600 mg of Compound A in combination with 800 mg of Indinavir versus Compound A alone): about 18 fold
Cmax [2]: 1580 nM
Tmax [2]: 2.2 h
AUC [2]: 7.45 µM·h
concentration at 8 h [2]: 232 nM
concentration at 12 h [2]: 70 nM
concentration at 24 h [2]: 8 nM
Cmax [3]: 1560 nM
Tmax [3]: 2.3 h
AUC [3]: 9.22 µM·h
concentration at 8 h [3]: 416 nM
concentration at 12 h [3]: 107 nM
concentration at 24 h [3]: 10 nM
Cmax [4]: 2350 nM
Tmax [4]: 2.5 h
AUC [4]: 12.2 µM·h
concentration at 8 h [4]: 399 nM
concentration at 12 h [4]: 124 nM
concentration at 24 h [4]: 20 nM
Cmax [5]: 3880 nM
Tmax [5]: 3.3 h
AUC [5]: 25.2 µM·h
concentration at 8 h [5]: 1190 nM
concentration at 12 h [5]: 352 nM
concentration at 24 h [5]: 65 nM
Cmax [6]: 211 nM
Tmax [6]: 1.5 h
AUC [6]: 1.42 µM·h
concentration at 8 h [6]: 50 nM
concentration at 12 h [6]: 38 nM
concentration at 24 h [6]: 17 nM
Cmax [7]: 208 nM
Tmax [7]: 1.4 h
AUC [7]: 1.41 µM·h
concentration at 8 h [7]: 55 nM
concentration at 12 h [7]: 39 nM
concentration at 24 h [7]: 13 nM
Cmax [8]: 613 nM
Tmax [8]: 2 h
AUC [8]: 4.72 µM·h
concentration at 8 h [8]: 163 nM
concentration at 12 h [8]: 93 nM
concentration at 24 h [8]: 46 nM
Cmax [9]: 1270 nM
Tmax [9]: 2.5 h
AUC [9]: 10.4 µM·h
concentration at 8 h [9]: 444 nM
concentration at 12 h [9]: 250 nM
concentration at 24 h [9]: 105 nM
Structure (SMILES): CC(C)(C)NC(=O)[C@@H]1CN(Cc2cc3ccccc3o2)CCN1C[C@@H](O)C[C@@H](Cc1ccccc1)C(=O)N[C@H]1c2ccccc2C[C@H]1O [Compound A, N-(2(R)-hydroxy-1(S)-indanyl)-2(R)-phenylmethyl-4-(S)-hydroxy-5-(1-(4-(2-benzo[b]furanylmethyl)-2(S)-N'-(t-butylcarboxamido)-piperazinyl))-pentaneamide]
